Data on 24 compounds can be found in patent US20190284192A1, “NITROGENOUS MACROCYCLIC COMPOUND, PREPARATION METHOD THEREFOR, PHARMACEUTICAL COMPOSITION AND APPLICATION THEREOF” (LUOXIN PHARMACEUTICAL (SHANGHAI) CO., LTD., priority 2016, published 2019).

The test system of assay [1] is MV-4-11 cells. The assay can be described thus: Inhibitory effect on MV-4-11 cells (CellTiter-Glo). The class given is cell-based. The settings on record: Homo sapiens, read-out: MV-4-11. On the technique in general: In ATP-based viability assays light output follows the ATP content of the culture.
Experimental: The 1st Day: Seed the Cells on the Plate
1. The cells were verified that they were in good conditions by observation under microscope;
2. The cells were transferred to a 15 mL centrifuge tube, after centrifuged at 1000 rpm for 5 min, the supernatant was discarded;
3. The complete medium (IMDM+10% FBS) was added, then blown and patted into single cell suspension, counted by Vi-cell cytometer, the cell suspension was adjusted to desired cell density by the complete medium.
4. The cells were inoculated into a 96 well plate, the cell number was 15000/well at 100 μL per well, 100 μL complete medium was added into the black control.
5. 37° C., 5% CO2 culture overnight.
The 2nd Day: Addition of the Drugs
1. 1000× Compound Plate Preparation
1.1. The test compound was prepared into 10 mM working solution by using DMSO. Then the STS was prepared into 2 mM working solution by using DMSO.
1.2. In the round bottom 96 wells plate, the column 2 of row A to H was added into 60 μL 10 mM test compound (or STS) working solution, columns 3-11 were added into 40 μL DMSO, 20 μL drug solution was pipetted from the column 2 to the column 3, blown and patted for a homogeneous mixture; then 20 μL solution was pipetted from the column 3 to the column 4, blown and patted for a homogeneous mixture, sequently, the drug was diluted by 3 times, 10 concentrations in total. The columns 1 and 12 were supplemented with 40 μL of DMSO.
2. Intermediate plate areparation
A sterile V-bottom 96 deep well plate was used and in each well, 495 μL FBS-free PRMI 1640 medium was added, then 5 μL of the diluted compound (or DMSO) in the 1000× compound plate was pipetted into corresponding position of the V-bottom 96 well plate, blown and patted evenly.
3.1. The cell plate was taken out from the incubator and was observed under microscope. The diluted compound or DMSO in the intermediate plate was added into the cell plate, 11 μL each well.
3.2. The cell was continued to be cultured at 37° C., 5% CO2 for 72 hours.
The 5th Day: CellTiter-Glo Detection of the Cell Activity
1. The CellTiter-Glo buffer and the reaction substrate were taken out from the refrigerator, after balanced to r.t., the buffer was poured into a brown bottle containing the substrate, the bottle was upside down to have the substrate powder sufficientaly dissolved.
2. The cell was observed under microscope; the cell plate was balanced to r.t.
3. The prepared CellTiter-Glo was added into the 96 well plate, at 100 μL/well.
4. The cell plate was placed on a shaker for 10 min, followed by standing at r.t. for 10 min.
5. A white seal film was attached to the bottom of the well plate, and the chemiluminescence signal of each well was detected by the Enspire microplate detector.
6. XLfit was used for data processing. Inhibition rate %=(d−c)/(d−b)×100, while d is the signal value of the DMSO treated group, c is the signal value of the compound treated group, b is signal value of the blank control that only containing medium and DMSO without cells. The data was fitted using the f(x)205[fit=(A+((B−A)/(1+((C/x)^∧D))))] equation in the XLfit software.
For assay [2], the target named is T1, BRD4 (BD1) (Homo sapiens, UniProt O60885).
T1 construct: Each member comprises two tandem bromodomains (BD1 and BD2) for recognizing the acetylated lysine residues
Nature of the assay: BRD4 (BD1) bromodomain binding, HTRF. The settings on record: 2 h incubation at r.t.

For assay [3], the target named is T2, BRD4 (BD2) (Homo sapiens, UniProt O60885).
T2 construct: Each member comprises two tandem bromodomains (BD1 and BD2) for recognizing the acetylated lysine residues
The assay can be described thus: BRD4 (BD2) bromodomain binding, HTRF. The settings on record: 2 h incubation at r.t. For orientation: Time-resolved FRET reads energy transfer from a long-lived donor to a nearby acceptor.

Setting [4] is: MV4-11, 72 hours, CellTiter-Glo.

SMILES strings stand for the structures. Read-outs that look alike come from different tables or passages of the source.

For the compound `Cn1cc2c(cc1=O)[C@H](CC(N)=O)N=C(c1ccc(F)cc1)c1ccc(CS(C)(=O)=O)cc1-2` [Compound 4014, (S)-2-(7-(4-fluorophenyl)-2-methyl-10-(methylsulfonylmethyl)-3-oxo-3,5-dihydro-2H-benzo[c]pyrido[3,4-e]azepin-5-yl)acetamide], the IC50 in assay [1] (setting [4]) was found to be 292 nM; in assay [2], 2 nM; in assay [3], 1 nM.
Take `CCS(=O)(=O)Nc1cc2c(cc1F)C(c1ccc(F)cc1)=N[C@@H](C)c1cc(=O)n(C)cc1-2` [Compound 4055, (S)—N-(9-fluoro-7-(4-flurophenyl)-2,5-dimethyl-3-oxo-3,5-dihydro-2H-benzo[c]pyrido[3,4-e]azepin-10-yl)ethylsulfonamide]: the IC50 in assay [1] (setting [4]), in assay [2] and in assay [3] was 1 nM in each case.
For the compound `CCS(=O)(=O)Cc1cc2c(cc1F)C(c1ccc(F)cc1)=N[C@@H](C)c1cc(=O)n(C)cc1-2` [Compound 4085, (S)-10-((ethylsulfonyl)methyl)-9-fluoro-7-(4-flurophenyl)-2,5-dimethyl-2,5-dihydro-3H-benzo[c]pyrido[3,4-e]azepin-3-ketone], the IC50 in assay [1] (setting [4]) came out at 4 nM; in assay [2] it was 2 nM; in assay [3], 1 nM.
In the same order, the values of `CCS(=O)(=O)Cc1cc2c(cc1Cl)C(c1ccc(F)cc1)=N[C@@H](C)c1cc(=O)n(C)cc1-2` [Compound 4086, (S)-9-chloro-10-((ethylsulfonyl)methyl)-7-(4-flurophenyl)-2,5-dimethyl-2,5-dihydro-3H-benzo[c]pyrido[3,4-e]azepin-3-ketone] are 3 nM, 2 nM and 1 nM.
Regarding `CCS(=O)(=O)Cc1ccc2c(c1)-c1cn(C)c(=O)cc1[C@@H](C)N=C2c1ccc(F)cc1` [Compound 4033, (R)-10-((ethylsulfone)methyl)-7-(4-fluorophenyl)-2,5-dimethyl-2,5-dihydro-3H-benzo[c]pyrido[3,4-e]azepin-3-ketone], the IC50 in assay [1] (setting [4]) was determined as 985 nM; in assay [2], 341 nM; in assay [3], 144 nM.
For the compound `CNS(=O)(=O)C(C)c1ccc2c(c1)-c1cn(C)c(=O)cc1[C@H](C)N=C2c1ccc(F)cc1` (stereo partly drawn) [Compound 4091, 1-((S)-7-(4-flurophenyl)-2,5-dimethyl-3-oxo-3,5-dihydro-2H-benzo[c]pyrido[3,4-e]azepin-10-yl)-N-methylethane-1-sulfamide], the IC50 stood at 3 nM in assay [1] (setting [4]), 1 nM in assay [2] and 0.7 nM in assay [3].
Take `C[C@@H]1N=C(c2ccc(F)cc2)c2cc(F)c(N)cc2-c2cn(C)c(=O)cc21` [Compound 4070, (S)-10-amino-9-fluoro-7-(4-flurophenyl)-2,5-dimethyl-2,5-dihydro-3H-benzo[c]pyrido[3,4-e]azepin-3-ketone]: the IC50 in assay [1] (MV4-11, 72 h) amounted to 16 nM; in assay [2] it was 3 nM; in assay [3], 2 nM.
With `CCS(=O)(=O)Cc1ccc2c(c1)-c1cn(C)c(=O)cc1CN=C2c1ccc(F)cc1Cl` [Compound 4028, 7-(2-chloro-4-fluorophenyl)-10-((ethylsulfone)methyl)-2-methyl-2,5-dihydro-3H-benzo[c]pyrido[3,4-e]azepin-3-ketone], the results for the IC50 in assay [1] (setting [4]), in assay [2] and in assay [3] were 161 nM, 22 nM and 2 nM, respectively.
As for `CCS(=O)(=O)Cc1ccc2c(c1)-c1cn(C)c(=O)cc1C(COC)N=C2c1ccc(F)cc1` (stereo not drawn) [Compound 4082, 10-((ethylsulfonyl)methyl)-7-(4-flurophenyl)-5-(methoxylmethyl)-2-methyl-2,5-dihydro-3H-benzo[c]pyrido[3,4-e]azepin-3-ketone], the IC50 was 11 nM in assay [1] (setting [4]), 2 nM in assay [2] and 1 nM in assay [3].
In the same order, the values of `COc1ccc2c(c1)C(c1ccc(F)cc1)=NCc1cc(=O)n(C)cc1-2` [Compound 4020, 7-(4-fluorophenyl)-9-methoxy-2-methyl-2,5-dihydro-3H-benzo[c]pyrido[3,4-e]azepin-3-one] are 134 nM, 11 nM and 10 nM.
`CCC(=O)Nc1cc2c(cc1F)C(c1ccc(F)cc1)=N[C@@H](C)c1cc(=O)n(C)cc1-2` [Compound 4083, (S)—N-(9-fluoro-7-(4-flurophenyl)-2,5-dimethyl-3-oxo-3,5-dihydro-2H-benzo[c]pyrido[3,4-e]azepin-10-yl)propanamide]: the IC50 in assay [1] (setting [4]) is 31 nM; in assay [2], 8 nM; in assay [3], 4 nM.
The matching figures for `CCS(=O)(=O)Cc1ccc2c(c1)-c1cn(C)c(=O)cc1[C@H](C)N=C2c1ccc(Cl)cc1` [Compound 4037, (S)-10-((ethylsulfonyl)methyl)-7-(4-chlorophenyl)-2,5-dimethyl-2,5-dihydro-3H-benzo[c]pyrido[3,4-e]azepin-3-ketone]: 6 nM, 2 nM and 1 nM.
For `C[C@@H]1N=C(c2ccc(F)cc2)c2cc(Cl)c(NS(=O)(=O)C3CC3)cc2-c2cn(C)c(=O)cc21` [Compound 4080, (S)—N-(9-chloro-7-(4-flurophenyl)-2,5-dimethyl-3-oxo-3,5-dihydro-2H-benzo[c]pyrido[3,4-e]azepin-10-yl)cyclopropylsulfamide], the IC50 in assay [1] (setting [4]) came to 3 nM; in assay [2], 2 nM; in assay [3] it was 1 nM.
The matching figures for `CCS(=O)(=O)Cc1ccc2c(c1)-c1cn(C)c(=O)cc1[C@H](C)N=C2c1ccc(O)cc1` [Compound 4061, (S)-10-((ethylsulfonyl)methyl)-7-(4-hydroxylphenyl)-2,5-dimethyl-2,5-dihydro-3H-benzo[c]pyrido[3,4-e]azepin-3-ketone]: 11 nM, 2 nM and 1 nM.
In the same order, the values of `CCS(=O)(=O)Cc1ccc2c(c1)-c1cn(C)c(=O)cc1CN=C2c1ccc(Cl)cc1F` [Compound 4013, 7-(4-chloro-2-fluorophenyl)-10-((ethylsulfone)methyl)-2-methyl-2,5-dihydro-3H-benzo[c]pyrido[3,4-e]azepin-3-ketone] are 75 nM, 7 nM and 2 nM.
In the same order, the values of `CCS(=O)(=O)Cc1ccc2c(c1)-c1cn(C)c(=O)cc1[C@H](CC(=O)O)N=C2c1ccc(F)cc1` [Compound 4067, (S)-2-(10-((ethylsulfonyl)methyl)-7-(4-flurophenyl)-2-methyl-3-oxo-3,5-dihydro-2H-benzo[c]pyrido[3,4-e]azepin-5-yl)acetic acid] are above 2000 nM, 6 nM and 1 nM.
With `CCS(=O)(=O)Nc1cc2c(cc1Cl)C(c1ccc(F)cc1)=N[C@@H](C1CC1)c1cc(=O)n(C)cc1-2` [Compound 4077, (S)—N-(9-chloro-5-cyclopropyl-7-(4-flurophenyl)-2-methyl-3-oxo-3,5-dihydro-2H-benzo[c]pyrido[3,4-e]azepin-10-yl)ethylsulfonamide], the values for the IC50 in assay [1] (setting [4]), in assay [2] and in assay [3] were 0.4 nM, 1 nM and 0.4 nM, respectively.
On to `CC[S+]([O-])Cc1ccc2c(c1)-c1cn(C)c(=O)cc1[C@H](C)N=C2c1ccc(F)cc1` (stereo partly drawn) [Compound 4048, (5S)-10-((ethylsulfoxide)methyl)-7-(4-flurophenyl)-2,5-dimethyl-2,5-dihydro-3H-benzo[c]pyrido[3,4-e]azepin-3-ketone], for which the values for the IC50 in assay [1] (setting [4]), in assay [2] and in assay [3] were 28 nM, 2 nM and 2 nM, respectively.
For the compound `CCS(=O)(=O)Cc1ccc2c(c1)-c1cn(C)c(=O)cc1[C@H](C(C)C)N=C2c1ccc(F)cc1` [Compound 4060, (S)-10-((ethylsulfonyl)methyl)-7-(4-flurophenyl)-5-isopropyl-2-methyl-2,5-dihydro-3H-benzo[c]pyrido[3,4-e]azepin-3-ketone], the IC50 in assay [1] (setting [4]) turned out to be 19 nM; in assay [2] it was 2 nM; in assay [3] it was 1 nM.
In the same order, the values of `CCS(=O)(=O)Cc1cnc2c(c1)-c1cn(C)c(=O)cc1CN=C2c1ccc(F)cc1` [Compound 4022, 10-((ethylsulfonyl)methyl)-7-(4-fluorophenyl)-2-methyl-2,5-dihydro-3H-dipyrido[2,3-c: 3′,4′-e]azepin-3-ketone] are 190 nM, 12 nM and 7 nM.
In the same order, the values of `CC(C)S(=O)(=O)Cc1ccc2c(c1)-c1cn(C)c(=O)cc1[C@H](C)N=C2c1ccc(F)cc1` [Compound 4044, (S)-10-((isopropylsulfone)methyl)-7-(4-flurophenyl)-2,5-dimethyl-2,5-dihydro-3H-benzo[c]pyrido[3,4-e]azepin 3-ketone] are 7 nM, 1 nM and 1 nM.
The matching figures for `C[C@@H]1N=C(c2ccc(F)cc2)c2ccc(CS(=O)(=O)C(F)(F)F)cc2-c2cn(C)c(=O)cc21` [Compound 4043, (S)-7-(4-flurophenyl)-2,5-dimethyl-10-((trifluoromethylsulphone)methyl)-2,5-dihydro-3H-benzo[c]pyrido[3,4-e]azepin-3-ketone]: 8 nM, 1 nM and 2 nM.
`CC[C@@H]1N=C(c2ccc(F)cc2)c2cc(F)c(NS(=O)(=O)CC)cc2-c2cn(C)c(=O)cc21` [Compound 4066, (S)—N-(5-ethyl-9-fluoro-7-(4-flurophenyl)-2-methyl-3-oxo-3,5-dihydro-2H-benzo[c]pyrido[3,4-e]azepin-10-yl)ethylsulfonamide]: the IC50 in assay [1] (setting [4]) stood at 0.4 nM; in assay [2], 1 nM; in assay [3], 1 nM.
With `CCS(=O)(=O)Nc1ccc2c(c1)-c1cn(C)c(=O)cc1CN=C2c1ccc(Cl)cc1` [Compound 4024, N-(7-(4-chlorophenyl)-2-methyl-3-oxo-3,5-dihydro-2H-benzo[c]pyrido[3,4-e]azepin-3-yl)ethanesulfonamide], the IC50 turned out to be 9 nM in assay [1] (setting [4]), 2 nM in assay [2] and 1 nM in assay [3].
